{
  "source": "paper PMC6045348",
  "about": "(ACS Omega, 2018)",
  "biological_target": "Ser–Thr PP-1 catalytic subunit (PP1c) (Oryctolagus cuniculus, UniProt P62139)",
  "sequence (P62139 2-330)": "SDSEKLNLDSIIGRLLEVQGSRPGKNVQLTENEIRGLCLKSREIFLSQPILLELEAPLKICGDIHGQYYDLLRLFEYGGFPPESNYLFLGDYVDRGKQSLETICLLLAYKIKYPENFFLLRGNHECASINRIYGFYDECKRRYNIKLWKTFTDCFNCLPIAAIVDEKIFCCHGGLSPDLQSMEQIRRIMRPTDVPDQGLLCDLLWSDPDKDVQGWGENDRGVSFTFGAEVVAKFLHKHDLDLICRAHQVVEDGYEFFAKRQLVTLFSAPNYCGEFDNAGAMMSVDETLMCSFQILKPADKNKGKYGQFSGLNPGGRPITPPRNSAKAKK",
  "experiment": "DiFMUP fluorescence phosphatase assay, residual activity […] at […]",
  "type": "biochemical",
  "note": "pIC50: −log10 of the molar value.",
  "data": [
    {"smiles": "CN1C[C@@H](c2c[nH]c3cc(Br)ccc23)NC[C@@H]1c1c[nH]c2cc(Br)ccc12", "note": "[compound 3, dragmacidin A]", "values": [
      {"measurement": "pIC50", "result": "~5.00"}
    ]}
  ]
}
